The text below walks through data of patent US12435084B2, “Indazole derivatives as inhibitors of SARM1” (Disarm Therapeutics, Inc., priority 2020, dated 2025).

pIC50: −log10 of the molar value.

The assay deals with T1, SARM1 (Homo sapiens, UniProt Q6SZW1).
T1 construct: made in house; host or cells: NRK1-HEK293T cells, transient transfection; cleared cell lysate used without purification
T1 sequence (Q6SZW1 with tags, fused parts or gaps): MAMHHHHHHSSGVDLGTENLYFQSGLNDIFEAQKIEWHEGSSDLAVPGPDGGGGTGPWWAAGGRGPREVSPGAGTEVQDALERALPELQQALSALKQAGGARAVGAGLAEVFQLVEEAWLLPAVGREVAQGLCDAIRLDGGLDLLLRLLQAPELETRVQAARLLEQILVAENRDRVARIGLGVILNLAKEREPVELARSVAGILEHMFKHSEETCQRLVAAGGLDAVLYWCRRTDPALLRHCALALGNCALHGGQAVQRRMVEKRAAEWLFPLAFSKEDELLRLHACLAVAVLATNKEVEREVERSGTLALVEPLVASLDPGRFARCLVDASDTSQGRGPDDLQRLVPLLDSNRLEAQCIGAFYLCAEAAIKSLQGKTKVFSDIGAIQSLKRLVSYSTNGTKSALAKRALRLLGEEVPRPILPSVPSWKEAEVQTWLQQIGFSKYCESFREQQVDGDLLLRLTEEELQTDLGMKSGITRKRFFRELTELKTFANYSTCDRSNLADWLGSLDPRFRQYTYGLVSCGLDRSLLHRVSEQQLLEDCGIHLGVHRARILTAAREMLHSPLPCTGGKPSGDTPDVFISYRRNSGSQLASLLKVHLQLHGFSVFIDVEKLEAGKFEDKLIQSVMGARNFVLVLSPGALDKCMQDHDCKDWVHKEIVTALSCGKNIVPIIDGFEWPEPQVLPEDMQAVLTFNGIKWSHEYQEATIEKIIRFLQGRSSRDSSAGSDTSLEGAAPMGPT
Description: ARM-SAM-TIR SARM1 IC50 assay (NADase activity, NAD+ cleavage, RapidFire mass spectrometry). The format is biochemical. Particulars: ARM-SAM-TIR lysate 5 μg/mL, 2 h pre-incubation with compound at room temperature, 5 μM NAD+, 2 hr incubation. Here is the method: This Example describes an assay of ARM-SAM-TIR NADase activity and use of this assay to measure the efficacy of compounds of Formula I/II to block SARM1 mediated NAD+ cleavage. This assay was optimized in such a way as to characterize the efficacy of the compounds in Formula I/I to inhibit SARM1 activity and to calculate an IC50 value for each compound. This assay makes use of full length SARM1, which encompasses the ARM, SAM and TIR domains. […] NRK1-HEK293T cells were seeded onto 150 cm^2 plates at 20×10^6 cells per plate. The next day, the cells were transfected with […] ARM-SAM-TIR expression plasmid, SEQ ID NO: 1. The cultures were supplemented with 1 mM NR at time of transfection to minimize toxicity from ARM-SAM-TIR overexpression. Forty-eight hours after transfection, cells were harvested, pelleted by centrifugation at 1,000 rpm (Sorvall ST 16R centrifuge, Thermo Fisher), and washed once with cold PBS (0.01 M phosphate buffered saline NaCl 0.138 M; KCl 0.0027 M; pH 7.4). The cells were resuspended in PBS with protease inhibitors (cOmplete™ protease inhibitor cocktail, Roche product #11873580001) and cell lysates were prepared by sonication (Branson Sonifer 450, output=3, 20 episodes of stroke). The lysates were centrifuged (12,000×g for 10 min at 4° C.) to remove cell debris and the supernatants (containing ARM-SAM-TIR protein) were stored at −80° C. for later use in the in vitro ARM-SAM-TIR NADase assay (see below). Protein concentration was determined by the Bicinchoninic (BCA) method and used to normalize lysate concentrations. The enzymatic assay was performed in a 384-well polypropylene plate in Dulbecco's PBS buffer in a final assay volume of 20 μL. […] The reaction was initiated by addition of 5 μM final assay concentration of NAD+ as substrate. After a 2 hr room temperature incubation, the reaction was terminated with 40 μL of stop solution of 7.5% trichloroactetic acid in acetonitrile. The NAD+ and ADPR concentrations were analyzed by a RapidFire High Throughput Mass Spectrometry System (Agilent Technologies, Santa Clara, CA) using an API4000 triple quadrupole mass spectrometer (AB Sciex Framingham, MA).
In general, pIC50 refers to −log10 of the IC50, conventionally taken in molar units. Turning to `O=C(NCc1ccc(Cl)cc1)c1cccc2c(-c3cnc[nH]3)n[nH]c12` [Example 18], the pIC50 is below 5.00.
In the case of `O=C(NCc1ccc(Cl)cc1)c1cccc2c(-c3cncs3)n[nH]c12` [Example 19] it was below 5.00; in that of `Cn1cncc1-c1n[nH]c2c(C(=O)NCc3ccc(Cl)cc3)cccc12` [Example 20], below 5.00; in that of `O=C(NCc1ccc(Cl)cc1)c1cccc2c(-c3cnco3)n[nH]c12` [Example 21], below 5.00.
In the case of `Cc1ccc(C(=O)NCc2ccc(Cl)nc2)c2[nH]nc(-c3ccncc3)c12` [Example 24] it was 5.30 to 6.00; in that of `O=C(NCc1ccc(Cl)c(F)c1)c1cccc2c(-c3ccncc3)n[nH]c12` [Example 16], above 7.00; in that of `Cc1cc(C(=O)NCc2ccc(Cl)nc2)c2[nH]nc(-c3ccncc3)c2c1` [Example 25], 6.00 to 7.00.
In the case of `C[C@@H](NC(=O)c1cccc2c(-c3ccncc3)n[nH]c12)c1ccc(Cl)cc1` [Example 15] it was 6.00 to 7.00; in that of `O=C(NCc1ccc(Cl)cc1)c1nccc2c(-c3ccncc3)n[nH]c12` [Example 14], above 7.00; in that of `O=C(NCc1ccc(Cl)s1)c1cccc2c(-c3ccncc3)n[nH]c12` [Example 17], above 7.00.
